Values quoted from earlier work in patent publication EP4674947A1, “YEAST MUTANT STRAIN WITH HIGH GLYCOLIPID PRODUCTIVITY” (KAO CORPORATION, priority 2024, dated 2025).

Conditions: decreased from 72.8 mN/m; sophorolipid produced by Starmerella bombicola

- surface tension of water decreased to: 30 mN/m
Substance: Sophorolipid
